Assays:
Type in all cases: functional
Details in all cases: read-out: GI
CCRF-CEM = experiment: Growth inhibition of human CCRF-CEM cells at 10 uM incubated for 48 hrs by sulforhodamine B assay relative to control
HL-60(TB) = experiment: Growth inhibition of human HL-60(TB) cells at 10 uM incubated for 48 hrs by sulforhodamine B assay relative to control
K562 = experiment: Growth inhibition of human K562 cells at 10 uM incubated for 48 hrs by sulforhodamine B assay relative to control
MOLT-4 = experiment: Growth inhibition of human MOLT-4 cells at 10 uM incubated for 48 hrs by sulforhodamine B assay relative to control
HOP-92 = experiment: Growth inhibition of human HOP-92 cells at 10 uM incubated for 48 hrs by sulforhodamine B assay relative to control
NCI-H226 = experiment: Growth inhibition of human NCI-H226 cells at 10 uM incubated for 48 hrs by sulforhodamine B assay relative to control
NCI-H23 = experiment: Growth inhibition of human NCI-H23 cells at 10 uM incubated for 48 hrs by sulforhodamine B assay relative to control
NCI-H522 = experiment: Growth inhibition of human NCI-H522 cells at 10 uM incubated for 48 hrs by sulforhodamine B assay relative to control
COLO 205 = experiment: Growth inhibition of human COLO 205 cells at 10 uM incubated for 48 hrs by sulforhodamine B assay relative to control
HCC 2998 = experiment: Growth inhibition of human HCC 2998 cells at 10 uM incubated for 48 hrs by sulforhodamine B assay relative to control
HCT-116 = experiment: Growth inhibition of human HCT-116 cells at 10 uM incubated for 48 hrs by sulforhodamine B assay relative to control
HCT-15 = experiment: Growth inhibition of human HCT-15 cells at 10 uM incubated for 48 hrs by sulforhodamine B assay relative to control
HT-29 = experiment: Growth inhibition of human HT-29 cells at 10 uM incubated for 48 hrs by sulforhodamine B assay relative to control
KM12 = experiment: Growth inhibition of human KM12 cells at 10 uM incubated for 48 hrs by sulforhodamine B assay relative to control
SF-268 = experiment: Growth inhibition of human SF-268 cells at 10 uM incubated for 48 hrs by sulforhodamine B assay relative to control
SF-295 = experiment: Growth inhibition of human SF-295 cells at 10 uM incubated for 48 hrs by sulforhodamine B assay relative to control
SF-539 = experiment: Growth inhibition of human SF-539 cells at 10 uM incubated for 48 hrs by sulforhodamine B assay relative to control
SNB-19 = experiment: Growth inhibition of human SNB-19 cells at 10 uM incubated for 48 hrs by sulforhodamine B assay relative to control
SNB-75 = experiment: Growth inhibition of human SNB-75 cells at 10 uM incubated for 48 hrs by sulforhodamine B assay relative to control
LOX IMVI = experiment: Growth inhibition of human LOX IMVI cells at 10 uM incubated for 48 hrs by sulforhodamine B assay relative to control
Malme-3M = experiment: Growth inhibition of human Malme-3M cells at 10 uM incubated for 48 hrs by sulforhodamine B assay relative to control
M14 = experiment: Growth inhibition of human M14 cells at 10 uM incubated for 48 hrs by sulforhodamine B assay relative to control
MDA-MB-435 = experiment: Growth inhibition of human MDA-MB-435 cells at 10 uM incubated for 48 hrs by sulforhodamine B assay relative to control
SK-MEL-28 = experiment: Growth inhibition of human SK-MEL-28 cells at 10 uM incubated for 48 hrs by sulforhodamine B assay relative to control
SK-MEL-5 = experiment: Growth inhibition of human SK-MEL-5 cells at 10 uM incubated for 48 hrs by sulforhodamine B assay relative to control
UACC-257 = experiment: Growth inhibition of human UACC-257 cells at 10 uM incubated for 48 hrs by sulforhodamine B assay relative to control
UACC-62 = experiment: Growth inhibition of human UACC-62 cells at 10 uM incubated for 48 hrs by sulforhodamine B assay relative to control
IGROV-1 = experiment: Growth inhibition of human IGROV-1 cells at 10 uM incubated for 48 hrs by sulforhodamine B assay relative to control
OVCAR-3 = experiment: Growth inhibition of human OVCAR-3 cells at 10 uM incubated for 48 hrs by sulforhodamine B assay relative to control
OVCAR-4 = experiment: Growth inhibition of human OVCAR-4 cells at 10 uM incubated for 48 hrs by sulforhodamine B assay relative to control
OVCAR-5 = experiment: Growth inhibition of human OVCAR-5 cells at 10 uM incubated for 48 hrs by sulforhodamine B assay relative to control
OVCAR-8 = experiment: Growth inhibition of human OVCAR-8 cells at 10 uM incubated for 48 hrs by sulforhodamine B assay relative to control
NCI/ADR-RES = experiment: Growth inhibition of human NCI/ADR-RES cells at 10 uM incubated for 48 hrs by sulforhodamine B assay relative to control
RXF 393 = experiment: Growth inhibition of human RXF 393 cells at 10 uM incubated for 48 hrs by sulforhodamine B assay relative to control
SN12C = experiment: Growth inhibition of human SN12C cells at 10 uM incubated for 48 hrs by sulforhodamine B assay relative to control
TK-10 = experiment: Growth inhibition of human TK-10 cells at 10 uM incubated for 48 hrs by sulforhodamine B assay relative to control
UO-31 = experiment: Growth inhibition of human UO-31 cells at 10 uM incubated for 48 hrs by sulforhodamine B assay relative to control
PC-3 = experiment: Growth inhibition of human PC-3 cells at 10 uM incubated for 48 hrs by sulforhodamine B assay relative to control
DU-145 = experiment: Growth inhibition of human DU-145 cells at 10 uM incubated for 48 hrs by sulforhodamine B assay relative to control
MCF7 = experiment: Growth inhibition of human MCF7 cells at 10 uM incubated for 48 hrs by sulforhodamine B assay relative to control
MDA-MB-231 = experiment: Growth inhibition of human MDA-MB-231 cells at 10 uM incubated for 48 hrs by sulforhodamine B assay relative to control
Hs-578T = experiment: Growth inhibition of human Hs-578T cells at 10 uM incubated for 48 hrs by sulforhodamine B assay relative to control
BT-549 = experiment: Growth inhibition of human BT-549 cells at 10 uM incubated for 48 hrs by sulforhodamine B assay relative to control
MDA-MB-468 = experiment: Growth inhibition of human MDA-MB-468 cells at 10 uM incubated for 48 hrs by sulforhodamine B assay relative to control

`O=C(CNc1ccccc1)Nc1ccc(-c2nc3ccccc3s2)cc1` gave an inhibition of growth at 10 µM (CCRF-CEM) of 74.3%, an inhibition of growth at 10 µM (HL-60(TB)) of 11% and an inhibition of growth at 10 µM (K562) of 22.5%. The inhibition of growth at 10 µM (MOLT-4) was 84.5%, the inhibition of growth at 10 µM (HOP-92) was 3.37% and the inhibition of growth at 10 µM (NCI-H226) was 5.83%. The inhibition of growth at 10 µM (NCI-H23) was 11.9%, the inhibition of growth at 10 µM (NCI-H522) was 26% and the inhibition of growth at 10 µM (COLO 205) was -11.2%. For the same compound, the inhibition of growth at 10 µM (HCC 2998) was -16%, the inhibition of growth at 10 µM (HCT-116) was 29.7% and the inhibition of growth at 10 µM (HCT-15) was 29.6%. For the same compound, the inhibition of growth at 10 µM (HT-29) was 2%, the inhibition of growth at 10 µM (KM12) was 5.48% and the inhibition of growth at 10 µM (SF-268) was 12.1%. For the same compound, the inhibition of growth at 10 µM (SF-295) was 7.06%, the inhibition of growth at 10 µM (SF-539) was 12% and the inhibition of growth at 10 µM (SNB-19) was 8.22%. It also gave an inhibition of growth at 10 µM (SNB-75) of 17.4%, an inhibition of growth at 10 µM (LOX IMVI) of 55.4% and an inhibition of growth at 10 µM (Malme-3M) of 4.9%. For the same compound, the inhibition of growth at 10 µM (M14) was 12.9%, the inhibition of growth at 10 µM (MDA-MB-435) was 12.6% and the inhibition of growth at 10 µM (SK-MEL-28) was 3.37%. The inhibition of growth at 10 µM (SK-MEL-5) was 22%, the inhibition of growth at 10 µM (UACC-257) was -1.98% and the inhibition of growth at 10 µM (UACC-62) was 23.5%. It also gave an inhibition of growth at 10 µM (IGROV-1) of 16.1%, an inhibition of growth at 10 µM (OVCAR-3) of 5.15% and an inhibition of growth at 10 µM (OVCAR-4) of 15.3%. The inhibition of growth at 10 µM (OVCAR-5) was -10.9%, the inhibition of growth at 10 µM (OVCAR-8) was 9.58% and the inhibition of growth at 10 µM (NCI/ADR-RES) was 1.75%. For the same compound, the inhibition of growth at 10 µM (RXF 393) was 5.43%, the inhibition of growth at 10 µM (SN12C) was 8.85% and the inhibition of growth at 10 µM (TK-10) was -17.9%. It also gave an inhibition of growth at 10 µM (UO-31) of 30.2%, an inhibition of growth at 10 µM (PC-3) of 10.1% and an inhibition of growth at 10 µM (DU-145) of 3.91%. The inhibition of growth at 10 µM (MCF7) was 53.2%, the inhibition of growth at 10 µM (MDA-MB-231) was -0.13% and the inhibition of growth at 10 µM (Hs-578T) was -8.46%. It also gave an inhibition of growth at 10 µM (BT-549) of 43.5% and an inhibition of growth at 10 µM (MDA-MB-468) of 29.5%.
In the case of `O=C(CNc1ccc(Cl)cc1)Nc1ccc(-c2nc3ccccc3s2)cc1`, the inhibition of growth at 10 µM (CCRF-CEM) is reported as 96.8%, the inhibition of growth at 10 µM (HL-60(TB)) is reported as 29% and the inhibition of growth at 10 µM (K562) is reported as 88.1%. It also gave an inhibition of growth at 10 µM (MOLT-4) of 95.6%, an inhibition of growth at 10 µM (HOP-92) of 2.16% and an inhibition of growth at 10 µM (NCI-H226) of 41.9%. For the same compound, the inhibition of growth at 10 µM (NCI-H23) was 60.9%, the inhibition of growth at 10 µM (NCI-H522) was 194% and the inhibition of growth at 10 µM (COLO 205) was 53%. For the same compound, the inhibition of growth at 10 µM (HCC 2998) was 116%, the inhibition of growth at 10 µM (HCT-116) was 76.7% and the inhibition of growth at 10 µM (HCT-15) was 114%. For the same compound, the inhibition of growth at 10 µM (HT-29) was 52.1%, the inhibition of growth at 10 µM (KM12) was 19.3% and the inhibition of growth at 10 µM (SF-268) was 75.9%. It also gave an inhibition of growth at 10 µM (SF-295) of 5.37%, an inhibition of growth at 10 µM (SF-539) of 21.9% and an inhibition of growth at 10 µM (SNB-19) of 36.4%. It also gave an inhibition of growth at 10 µM (SNB-75) of 39.9%, an inhibition of growth at 10 µM (LOX IMVI) of 141% and an inhibition of growth at 10 µM (Malme-3M) of 130%. For the same compound, the inhibition of growth at 10 µM (M14) was 55.8%, the inhibition of growth at 10 µM (MDA-MB-435) was 37.2% and the inhibition of growth at 10 µM (SK-MEL-28) was 0.54%. It also gave an inhibition of growth at 10 µM (SK-MEL-5) of 75%, an inhibition of growth at 10 µM (UACC-257) of 9.09% and an inhibition of growth at 10 µM (UACC-62) of 69.9%. The inhibition of growth at 10 µM (IGROV-1) was 65.7%, the inhibition of growth at 10 µM (OVCAR-3) was 71.1% and the inhibition of growth at 10 µM (OVCAR-4) was 76.9%. It also gave an inhibition of growth at 10 µM (OVCAR-5) of -21.1%, an inhibition of growth at 10 µM (OVCAR-8) of 33.6% and an inhibition of growth at 10 µM (NCI/ADR-RES) of 35.5%. The inhibition of growth at 10 µM (RXF 393) was 15.8%, the inhibition of growth at 10 µM (SN12C) was 53.2% and the inhibition of growth at 10 µM (TK-10) was -18.4%. The inhibition of growth at 10 µM (UO-31) was 35%, the inhibition of growth at 10 µM (PC-3) was 14.7% and the inhibition of growth at 10 µM (DU-145) was 29.8%. It also gave an inhibition of growth at 10 µM (MCF7) of 88.5%, an inhibition of growth at 10 µM (MDA-MB-231) of 62.4% and an inhibition of growth at 10 µM (Hs-578T) of 15.9%. For the same compound, the inhibition of growth at 10 µM (BT-549) was 83.3% and the inhibition of growth at 10 µM (MDA-MB-468) was 111%.

Reference: ChEMBL document CHEMBL4765227, “Hit to lead optimization of a series of N-[4-(1,3-benzothiazol-2-yl)phenyl]acetamides as monoacylglycerol lipase inhibitors with potential anticancer activity” (Eur J Med Chem, 2016)
